Laboratory results reported in patent US8748491B2, “Dietary and pharmaceutical compositions containing tricyclic diterpenes and their derivatives and their uses” (priority 2006, dated 2014).

Key:
[1] = target: T1, human dopamine transporter (hDAT) (Homo sapiens, UniProt Q01959); experiment: Inhibition of dopamine reuptake into transfected CHO-Ki/hDAT cells; format: cell-based; conditions: 50 nM [3H]Dopamine
T1 construct: expressed in transfected cells; host or cells: CHO-Ki (so in the source)
Procedure: CHO-Ki/hDAT cells expressing the human dopamine transporter (hDAT) were plated before the assay. Cells (2×10^5/ml) were incubated with carnosic acid and/or vehicle in modified Tris-HEPES buffer, pH 7.1, at 25° C. for 20 minutes before addition of 50 nM [^3H]Dopamine for 10 minutes. Specific signal was determined in the presence of 10 μM nomifensine (dopamine reuptake inhibitor). Cells were then solubilised with 1% SDS lysis buffer. Reduction of [^3H]Dopamine uptake by 50 per cent or more (≧50%) relative to vehicle controls indicated significant inhibitory activity.

[2] = target: T2, Monoamine oxidase B (MAO-B) (Homo sapiens, UniProt P27338); experiment: Monoamine oxidase B inhibition (benzylamine substrate, H2O2/vanillic acid/HRP readout); format: biochemical
T2 sequence (P27338 1-520): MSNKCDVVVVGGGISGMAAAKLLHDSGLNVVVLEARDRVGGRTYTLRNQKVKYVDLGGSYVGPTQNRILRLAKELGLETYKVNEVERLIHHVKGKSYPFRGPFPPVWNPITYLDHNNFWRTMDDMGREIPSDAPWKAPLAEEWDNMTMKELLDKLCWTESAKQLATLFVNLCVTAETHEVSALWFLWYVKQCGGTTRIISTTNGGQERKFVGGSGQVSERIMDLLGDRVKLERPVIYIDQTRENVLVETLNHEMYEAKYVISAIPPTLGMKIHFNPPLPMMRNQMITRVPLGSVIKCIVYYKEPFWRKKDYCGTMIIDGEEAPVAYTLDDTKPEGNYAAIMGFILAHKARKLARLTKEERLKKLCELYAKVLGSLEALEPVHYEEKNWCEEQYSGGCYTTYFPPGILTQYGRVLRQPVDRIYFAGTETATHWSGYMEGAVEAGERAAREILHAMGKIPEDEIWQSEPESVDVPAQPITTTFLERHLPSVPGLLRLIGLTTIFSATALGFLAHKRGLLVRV
Procedure: The organic amines p-tyramine or benzylamine were used as substrates for the Monoamine oxidase A (MAO-A) and B (MAO-B) enzymes respectively. The H2O2 produced by this reaction was quantified by reaction with vanillic acid, catalysed by horse radish peroxidase (HRP).
The reactions were carried out in polystyrene microtitre plates. The MAO enzymes (final concentration 2 U/ml) were mixed with either p-tyramine (Sigma, final concentration 0.5 mM) or benzylamine (Sigma, final concentration 0.5 mM) as appropriate and the chromogenic solution (containing vanillic acid (Fluka), 4-aminoantipyrine (Fluka) and horse radish peroxidase (Sigma), final concentrations 0.25 mM, 0.125 mM and 1 U/ml respectively) in 0.2 M potassium phosphate buffer, pH 7.6. The reactions were followed in a microtitre plate absorbance reader e.g. Spectramax M5 (Molecular Devices Corporation). Absorbance readings at 495 nm were taken every 15 seconds for 40 minutes and the initial reaction velocities calculated by linear regression using SOFTmaxPro (Molecular Devices Corporation).
The effect of tricyclic diterpenes and their derivatives according to formula I on the monoamine oxidase enzymes was determined by their inclusion in the assay at a range of concentrations between 0.03 and 100 μM for 10 minutes prior to and during the incubation with substrate. To determine the effect of the compounds on the HRP catalyzed portion of the reaction, the MAO enzyme was replaced by H2O2 (Molecular Probes, final concentration 0.2 mM). The reactions containing MAO-A and MAO-B were both inhibited by tricyclic diterpenes and their derivatives according to formula I in a dose-dependent manner, whilst the control reaction, was unaffected. The measured IC50 values for inhibition of monoamine oxidase activity by carnosic acid, carnosic acid-12-methyl ether and 20-deoxo-carnosol are shown in Table 3.

[3] = test system: mouse; experiment: Light dark box test; format: in vivo; conditions: for NUMBER OF CROSSINGS % change from control: mouse
Excerpt: The method, which detects anxiolytic activity, follows that described by Crawley, 1981 Pharmacol. Biochem. Behav., 15:695-699. Anxiolytics increase the time spent in the light compartment.
Animals were placed into the light compartment of a 2-compartment box with one half light and open (25×27×27 cm) and the other half dark and closed (20×27×27 cm). The time spent in each compartment as well as the number of times the animal crosses from one side to the other is scored during a 3-minute test. 15 mice were studied per group. The test was performed blind.
Carnosic acid was evaluated at 3 doses (100, 200, 400 mg/kg BW), administered by oral gavage (p.o.) 24, 5 and 1 hour before the test, and compared with a vehicle control group (corn oil). Carnosic acid was dissolved in corn oil (“vehicle”). Clobazam (32 mg/kg p.o.), administered 1 hour before the test, was used as reference substance. Mice in this group received additional administrations of vehicle at 24 and 5 hours before the test in order to maintain experimental blinding.

T1 sequence (Q01959 whole entry): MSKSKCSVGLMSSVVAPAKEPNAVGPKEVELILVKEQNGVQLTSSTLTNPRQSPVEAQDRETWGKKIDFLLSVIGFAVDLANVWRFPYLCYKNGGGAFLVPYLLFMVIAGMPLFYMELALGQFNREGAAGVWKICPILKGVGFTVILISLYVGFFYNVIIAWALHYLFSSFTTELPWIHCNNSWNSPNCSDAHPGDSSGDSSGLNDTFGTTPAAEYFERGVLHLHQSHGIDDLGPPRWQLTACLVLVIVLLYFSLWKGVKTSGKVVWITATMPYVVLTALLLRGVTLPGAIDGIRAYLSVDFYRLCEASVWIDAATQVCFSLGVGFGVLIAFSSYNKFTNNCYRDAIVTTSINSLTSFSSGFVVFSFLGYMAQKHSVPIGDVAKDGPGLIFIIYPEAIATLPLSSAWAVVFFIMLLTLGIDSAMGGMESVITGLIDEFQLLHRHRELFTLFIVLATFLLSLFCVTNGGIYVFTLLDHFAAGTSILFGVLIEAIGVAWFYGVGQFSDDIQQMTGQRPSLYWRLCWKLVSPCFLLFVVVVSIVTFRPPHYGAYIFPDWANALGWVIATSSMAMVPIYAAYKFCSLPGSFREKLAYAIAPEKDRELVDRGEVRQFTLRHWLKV

CC(C)c1cc2c(c(O)c1O)[C@@]1(C(=O)O)CCCC(C)(C)[C@@H]1CC2 [Carnosic acid, carnosic acid]
IC50 [1]: 15 µM
IC50 [2]: 8.6 ± 0.6 µM
NUMBER OF CROSSINGS % change from control ([3]; 100 mg/kg p.o. −24, −5, −1 h): +17%
NUMBER OF CROSSINGS % change from control ([3]; 200 mg/kg p.o., −24, −5, −1 h): −21%
NUMBER OF CROSSINGS % change from control ([3]; 400 mg/kg p.o. −24, −5, −1 h): +23%
number of crossings (in words) ([3]; mouse, 100, 200 and 400 mg/kg p.o.): did not affect
